Results as given in patent US6306828A, “Enantiomerically-enhanced nutritional energy substrates” (Baxter International, Inc., priority 1995, dated 2001).

Columns and labels:
[1] = system: isolated rat hepatocytes; assay: Bioavailability/metabolism in isolated rat hepatocytes (production of metabolic intermediates); format: cell-based, male Wistar rats; settings: 20 mM; for Glucose production / Ketone Bodies production / Pyruvate-Lactate production: 37° C.
Protocol: (§1) Assay of Bioavailability and Gross Toxicity of Trilactyl Glycerate in Isolate Rat Hepatocytes
(§2) In the following experiment, male Wistar rats (200-250 g) fasted for 24 hours were used. Hepatocytes were isolated according to the method of Berry and Friend (1969) as modified by Groen et al. (1982).
(§3) The isolated hepatocytes were incubated as follows:
[…] […] The supernatant was neutralized with KOH (2 M) and Mops (0.3 M) for subsequent determination of metabolites. 0.5 ml aliquots of the cell suspension were centrifuged at 13,500 g for 15 seconds. The pellet was frozen in liquid nitrogen and stored at -80° C. to subsequently measure pyruvate kinase activity.

[2] = system: isolated rat hepatocytes; assay: Gross toxicity, as gauged by hepatocyte viability; format: cell-based, male Wistar rats; settings: 20 mM
Protocol: as §1, §2, §3
Hepatocytes (final concentration=10 mg dry cell/ml) were incubated in closed vials at 37° C. in a shaking water bath (60 strokes/min) for 30 minutes in 2.5 ml Krebs-bicarbonate buffer (NaCl: 120 mmol/L, KCl: 4.8 mmol/L, KH2 PO4 : 1.2 mmol/L, MgSO4 : 1.2 mmol/L, NaCO3 H: 24 mmol/L, Ca^2+ :2.4 mmol/L, pH 7.4) containing Bovine Serum Albumin (BSA)-oleate (2%-2 mmol/L), trilactyl glycerate or glucose octanoate (20 mM) The gas atmosphere was O2 /CO2 (19:1). After 30 minutes, 0.35 ml samples of the cell suspension were taken and quenched with perchloric acid (HCIO4, final concentration 5% (w/v)), then centrifuged at 13,500 g for 5 minutes. The supernatant was neutralized with KOH (2 M) and Mops (0.3 M) for subsequent determination of metabolites. 0.5 ml aliquots of the cell suspension were centrifuged at 13,500 g for 15 seconds. The pellet was frozen in liquid nitrogen and stored at -80° C. to subsequently measure pyruvate kinase activity.

[3] = system: cerebral metabolism / brain function during hypoglycemia; settings: cited from earlier work
[4] = system: macrophage cultures; settings: high lactate concentration; Jensen et al. 1986; cited from earlier work
[5] = system: skeletal muscle; settings: Hermanson et al. 1972; cited from earlier work

CCCCCCCC(=O)OC1O[C@H](CO)[C@@H](O)[C@H](O)[C@H]1O (stereo partly drawn) [glucose octanoate, α,β-D-Glucopyranosyl octanoate]
bioavailability and metabolic conversion [1]: demonstrate the bioavailability of the substrate and its utility as a keptone precursor

CC(O)C(=O)OCC(COC(=O)C(C)O)OC(=O)C(C)O (single isomer, unassigned) [trilactyl glycerate]
Glucose production ([1]; 0 Mins.): 0.006 | Ketone Bodies production ([1]; 0 Mins.): 0.010 | Pyruvate-Lactate production ([1]; 0 Mins.): 0.012 | bioavailability and metabolic conversion [1]: demonstrate the bioavailability of trilactyl glycerate and its interconversion to glucose | Glucose production ([1]; 15 Mins.): 0.027 | Ketone Bodies production ([1]; 15 Mins.): 0.12 | Pyruvate-Lactate production ([1]; 15 Mins.): 0.38 | Glucose production ([1]; 30 Mins.): 0.062 | Ketone Bodies production ([1]; 30 Mins.): 0.15 | Pyruvate-Lactate production ([1]; 30 Mins.): 0.42 | Glucose production ([1]; 45 Mins.): 0.178 | Ketone Bodies production ([1]; 45 Mins.): 0.11 | Pyruvate-Lactate production ([1]; 45 Mins.): 0.45 | Glucose production ([1]; 60 Mins.): 0.189 | Ketone Bodies production ([1]; 60 Mins.): 0.13 | Pyruvate-Lactate production ([1]; 60 Mins.): 0.43 | gross toxicity, as gauged by hepatocyte viability [2]: No evidence of gross toxicity

CC(O)C(=O)O (stereo not shown) [lactate]
support of cerebral glucose metabolism and cognitive functions during hypoglycemia ([3]; Amiel 1994): able to support cerebral glucose metabolism and maintain cognitive functions during hypoglycemia | protection of brain function during hypoglycemia ([3]; Maran et al. 1994): protective of brain function during hypoglycemia | secretion of angiogenesis factors [4]: encouraged macrophage cultures to secrete angiogenesis factors | metabolism of blood lactate by skeletal muscle [5]: metabolized by skeletal muscle in significant quantities
